Experimental data taken from paper PMC12647645, “Structural interactions of BWC0977 with Klebsiella pneumoniae topoisomerase IV and biochemical basis of its broad-spectrum activity” (Communications Biology, 2025).
≈ marks a conversion by molar mass, not a printed value. Where “and” joins values, the source holds several entries; their conditions need not be identical. Equal values may be shown once. Read-outs that look alike come from different tables or passages of the source.

Key:
[1] = target: E. coli GyrA S83L mutant gyrase (Escherichia coli, UniProt P0AES4+P0AES6, S83L); assay: biochemical; assay type: biochemical; details: for Gyrase supercoiling inhibition response: GyrA S83L gyrase
E. coli ATCC 25922 [2] = assay: In vitro spontaneous resistance frequency; assay type: cell-based
Procedure: (§1) Spontaneous resistance frequencies to BWC0977 were evaluated in E. coli ATCC 25922, P. aeruginosa ATCC 27853, and A. baumannii ATCC 19606. Mid-logarithmic phase cultures (~10^9 CFU/mL) were plated onto Luria-Bertani agar containing BWC0977 at 4×, 8×, and 16× the respective MICs. Plates were incubated at 37 °C for 24–36 h, and resistance frequencies were estimated by counting colony-forming units (CFUs) on the drug-containing plates. MICs of the isolated colonies were determined, and the gyrA, gyrB, parC, and parE genes were sequenced to assess for target-site mutations.

A. baumannii ATCC 19606 = assay: In vitro spontaneous resistance frequency; assay type: cell-based
Procedure: as §1

[3] = test system: E. coli MG1655 GyrA WT, ParC D79N; assay: microbe, parasite or virus in culture; assay type: cell-based; details: Escherichia coli
E. coli gyrase = target: T1, E. coli gyrase (Escherichia coli, UniProt P0AES4+P0AES6); assay: biochemical; assay type: biochemical; details: for Gyrase supercoiling inhibition response: E. coli WT gyrase
T1 construct: purchased Inspiralis

E. coli ATCC 25922 [4] = assay: Resistant mutant generation by serial passage method; assay type: cell-based; details: Escherichia coli, read-out: MIC, serial passage
S. aureus = details: ref 6 (Hameed P et al., 2024); cited from earlier work
E. coli BAA 2471 = assay: microbe, parasite or virus in culture; assay type: cell-based; details: Escherichia coli, BAA2471
[5] = target: S. aureus topoisomerase IV (Staphylococcus aureus, UniProt P0C1S7+P0C1U9); assay: biochemical; design: Topo IV decatenation inhibition response: unit not given here
Procedure: Assays with P. aeruginosa topoisomerase IV (3 nM) were conducted in a similar buffer but with 50 mM HEPES-KOH (pH 7.9), 100 mM potassium glutamate, 6 mM magnesium acetate, 6 mM DTT, 1 mM ATP, 2 mM spermidine, and 50 μg/mL albumin. For S. aureus topoisomerase IV assay, the reactions contained 4 nM enzyme in an assay buffer composed of 50 mM Tris-HCl (pH 7.5), 5 mM MgCl₂, 5 mM DTT, 1.5 mM ATP, 350 mM potassium glutamate, and 0.05 mg/mL albumin. The procedures followed were consistent with those used in the supercoiling assays. Decatenated minicircles were resolved on 0.8% agarose gels, while the kDNA substrate remained in the wells. Gels were stained with 0.8 μg/mL ethidium bromide solution for 10 min, followed by destaining. DNA bands were visualized using a gel documentation system, and compound inhibition analysis was carried out using the same procedures described for the supercoiling assays.

E. cloacae = details: ref 6 (Hameed P et al., 2024); cited from earlier work
K. pneumoniae ATCC 13883 = assay: MIC broth microdilution; assay type: cell-based; details: Klebsiella pneumoniae, ATCC13883
[6] = test system: E. coli MG1655 GyrA M120A, ParC M118A; assay: microbe, parasite or virus in culture; assay type: cell-based; details: Escherichia coli
[7] = test system: E. coli MG1655 GyrA D82N, ParC D79N; assay: microbe, parasite or virus in culture; assay type: cell-based; details: Escherichia coli
P. aeruginosa BAA 2794 = assay: microbe, parasite or virus in culture; assay type: cell-based; details: Pseudomonas aeruginosa, BAA2794

SMILES: Cn1c(=O)ccc2ccc(F)c(CCNC[C@H]3CN(c4cnc5c(n4)NC(=O)CO5)C(=O)O3)c21 [BWC0977]
- IC50 ([1]; Fig. 6, read-out: IC50 S83L gyrase supercoiling): 3 nM
- Gyrase supercoiling inhibition response ([1]; compound 0.0005 µM, source data Fig 6A, 0.0005 µM): 7.40
- Gyrase supercoiling inhibition response ([1]; compound 0.0014 µM, source data Fig 6A, 0.0014 µM): 20.69
- Gyrase supercoiling inhibition response ([1]; compound 0.0041 µM, source data Fig 6A, 0.0041 µM): 57.16
- Gyrase supercoiling inhibition response ([1]; compound 0.012 µM, source data Fig 6A, 0.012 µM): 82.23
- Gyrase supercoiling inhibition response ([1]; compound 0.037 µM, source data Fig 6A, 0.037 µM): 88.47
- Gyrase supercoiling inhibition response ([1]; compound 0.111 µM, source data Fig 6A, 0.111 µM): 97.88
- Gyrase supercoiling inhibition response ([1]; compound 0.333 µM, source data Fig 6A, 0.333 µM): 98.84
- Gyrase supercoiling inhibition response ([1]; compound 1 µM, source data Fig 6A, 1 µM): 98.71
- Gyrase supercoiling inhibition response ([1]; compound 3 µM, source data Fig 6A, 3 µM): 96.44
- potency shift relative to WT ([1]; quinolone-resistant S83L vs WT): < 3 fold
- inhibition at 0.0014 µM ([1]; read-out: Gyrase supercoiling inhibition response, GyrA S83L gyrase, compound 0.0014 µM, source data Fig 6A): 35%
- inhibition at 0.0041 µM ([1]; read-out: Gyrase supercoiling inhibition response, GyrA S83L gyrase, compound 0.0041 µM, source data Fig 6A): 60.7%
- inhibition at 0.012 µM ([1]; read-out: Gyrase supercoiling inhibition response, GyrA S83L gyrase, compound 0.012 µM, source data Fig 6A): 74.3%
- inhibition at 0.037 µM ([1]; read-out: Gyrase supercoiling inhibition response, GyrA S83L gyrase, compound 0.037 µM, source data Fig 6A): 90.2%
- inhibition at 0.111 µM ([1]; read-out: Gyrase supercoiling inhibition response, GyrA S83L gyrase, compound 0.111 µM, source data Fig 6A): 91%
- inhibition at 0.333 µM ([1]; read-out: Gyrase supercoiling inhibition response, GyrA S83L gyrase, compound 0.333 µM, source data Fig 6A): 97.8%
- inhibition at 1 µM ([1]; read-out: Gyrase supercoiling inhibition response, GyrA S83L gyrase, compound 1 µM, source data Fig 6A): 99.5%
- inhibition at 3 µM ([1]; read-out: Gyrase supercoiling inhibition response, GyrA S83L gyrase, compound 3 µM, source data Fig 6A): 97.9%
- resistance frequency (E. coli ATCC 25922 [2]; 4× MIC): less than 1 × 10^−9
- sensitivity of ciprofloxacin-resistant mutants (GyrA S83L or D87Y) (E. coli ATCC 25922 [2]; mutants selected with ciprofloxacin 0.05 μg/mL): remained sensitive
- number of resistant mutant colonies (A. baumannii ATCC 19606; 0.6 μg/mL (4× MIC)): five
- resistance frequency (A. baumannii ATCC 19606; 4× MIC): less than 1 × 10^−9
- MIC increase of resistant colonies (A. baumannii ATCC 19606; colonies selected at 4× MIC of the same compound): four-fold
- MIC [3]: 0.03 µg/mL (≈ 0.064 µM)
- IC50 (E. coli gyrase): 4 ± 1 nM
- Gyrase supercoiling inhibition response (E. coli gyrase; compound 0.0003 μM, source data Fig 2A/6A, 0.0003 µM): 7.2 and 10.3 and 5.8
- Gyrase supercoiling inhibition response (E. coli gyrase; compound 0.0003 μM, source data Fig 2A/6A, listed as 977, 0.0003 µM): 10.30 and 5.78
- Gyrase supercoiling inhibition response (E. coli gyrase; compound 0.008 μM, source data Fig 2A/6A, 0.008 µM): 69.7 and 73.4
- Gyrase supercoiling inhibition response (E. coli gyrase; compound 0.008 μM, source data Fig 2A/6A, listed as 977, 0.008 µM): 73.65 and 69.70 and 73.41
- Gyrase supercoiling inhibition response (E. coli gyrase; compound 0.074 μM, source data Fig 2A/6A, 0.074 µM): 93.3 and 92.7
- Gyrase supercoiling inhibition response (E. coli gyrase; compound 0.074 μM, source data Fig 2A/6A, listed as 977, 0.074 µM): 89.29 and 93.34 and 92.67
- Gyrase supercoiling inhibition response (E. coli gyrase; compound 0.222 μM, source data Fig 2A/6A, 0.222 µM): 96.5 and 97.7 and 91.5
- Gyrase supercoiling inhibition response (E. coli gyrase; compound 0.222 μM, source data Fig 2A/6A, listed as 977, 0.222 µM): 97.67 and 91.52
- Gyrase supercoiling inhibition response (E. coli gyrase; compound 2 μM, source data Fig 2A/6A, 2 µM): 100.2 and 100.3 and 98.6
- Gyrase supercoiling inhibition response (E. coli gyrase; compound 2 μM, source data Fig 2A/6A, listed as 977, 2 µM): 100.30 and 98.60
- higher inhibition potency compared to compound 17a (E. coli gyrase; E. coli gyrase): ~ 20 fold
- inhibition at 0.0003 µM (E. coli gyrase; read-out: Gyrase supercoiling inhibition response, E. coli WT gyrase, compound 0.0003 μM, source data Fig 2A/6A): 7.23%
- inhibition at 0.008 µM (E. coli gyrase; read-out: Gyrase supercoiling inhibition response, E. coli WT gyrase, compound 0.008 μM, source data Fig 2A/6A): 73.7%
- inhibition at 0.074 µM (E. coli gyrase; read-out: Gyrase supercoiling inhibition response, E. coli WT gyrase, compound 0.074 μM, source data Fig 2A/6A): 89.3%
- inhibition at 0.222 µM (E. coli gyrase; read-out: Gyrase supercoiling inhibition response, E. coli WT gyrase, compound 0.222 μM, source data Fig 2A/6A): 96.5%
- inhibition at 2 µM (E. coli gyrase; read-out: Gyrase supercoiling inhibition response, E. coli WT gyrase, compound 2 μM, source data Fig 2A/6A): 100%
- MIC (E. coli ATCC 25922 [4]; ATCC25922, 24 h): 0.015 µg/mL (≈ 0.032 µM)
- MIC (E. coli ATCC 25922 [4]; ATCC25922, 288 h): 0.125 µg/mL (≈ 0.267 µM)
- MIC90 against diverse global isolates (S. aureus): 0.03 µg/mL (≈ 0.064 µM)
- MIC (E. coli BAA 2471): 0.5 µg/mL (≈ 1.07 µM)
- IC50 [5]: 110 nM
- inhibition at 0.0037 µM ([5]; S. aureus topo IV, compound 0.0037 μM, source data Fig 2C, read-out: Topo IV decatenation inhibition response): 0%
- Topo IV decatenation inhibition response ([5]; S. aureus topo IV, compound 0.0988 μM, source data Fig 2C, listed as 977, 0.0988 µM): 31.67 and 43.21 and 56.17
- Topo IV decatenation inhibition response ([5]; S. aureus topo IV, compound 0.2963 μM, source data Fig 2C, listed as 977, 0.2963 µM): 76.23 and 76.66
- inhibition at 0.2963 µM ([5]; S. aureus topo IV, compound 0.2963 μM, source data Fig 2C, read-out: Topo IV decatenation inhibition response): 67%
- Topo IV decatenation inhibition response ([5]; S. aureus topo IV, compound 0.8889 μM, source data Fig 2C, listed as 977, 0.8889 µM): 92.92 and 90.9
- inhibition at 0.8889 µM ([5]; S. aureus topo IV, compound 0.8889 μM, source data Fig 2C, read-out: Topo IV decatenation inhibition response): 89.7%
- inhibition at 2.6667 µM ([5]; S. aureus topo IV, compound 2.6667 μM, source data Fig 2C, read-out: Topo IV decatenation inhibition response): 98.1%
- Topo IV decatenation inhibition response ([5]; S. aureus topo IV, compound 8 μM, source data Fig 2C, listed as 977, 8 µM): 99.9 and 99.56
- inhibition at 8 µM ([5]; S. aureus topo IV, compound 8 μM, source data Fig 2C, read-out: Topo IV decatenation inhibition response): 99.7%
- MIC90 against diverse global isolates (E. cloacae): 2 µg/mL (≈ 4.27 µM)
- MIC (K. pneumoniae ATCC 13883): 0.06 µg/mL (≈ 0.128 µM)
- MIC [6]: 0.0625 µg/mL (≈ 0.133 µM)
- MIC [7]: 7.5 µg/mL (≈ 16 µM)
- MIC (P. aeruginosa BAA 2794): 0.125 µg/mL (≈ 0.267 µM)
